Biological target: full-length Plk1 (Homo sapiens, UniProt P53350)
Test: Fluorescence polarization
Conditions: FP assay, serially diluted full-length protein

Sequence of full-length Plk1 (P53350 whole entry): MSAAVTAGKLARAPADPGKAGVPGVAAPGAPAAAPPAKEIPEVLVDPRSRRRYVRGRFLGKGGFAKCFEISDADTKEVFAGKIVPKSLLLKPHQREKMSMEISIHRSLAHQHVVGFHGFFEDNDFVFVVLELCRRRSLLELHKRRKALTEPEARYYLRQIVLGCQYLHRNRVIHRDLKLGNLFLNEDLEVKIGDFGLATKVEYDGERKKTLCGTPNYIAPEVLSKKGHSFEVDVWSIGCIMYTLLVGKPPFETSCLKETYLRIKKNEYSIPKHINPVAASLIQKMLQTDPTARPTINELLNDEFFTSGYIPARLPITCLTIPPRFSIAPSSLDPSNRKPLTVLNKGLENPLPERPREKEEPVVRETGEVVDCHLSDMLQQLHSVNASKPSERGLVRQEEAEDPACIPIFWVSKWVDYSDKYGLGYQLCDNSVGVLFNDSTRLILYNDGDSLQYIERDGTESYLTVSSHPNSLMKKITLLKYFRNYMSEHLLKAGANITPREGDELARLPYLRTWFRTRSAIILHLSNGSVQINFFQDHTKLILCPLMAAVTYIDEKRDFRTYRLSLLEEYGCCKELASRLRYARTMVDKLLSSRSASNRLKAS

Substance: 5-carboxyfluorescein (5CF)-GPMQSpTPLNG-NH2 [5CF-GPMQSpTPLNG-NH2]
- FP signal response to full-length Plk1: did not show significant FP signal enhancement

Reference: publication PMC12349913 (Biological & pharmaceutical bulletin, 2024)
